Data set [1] deals with Schmallenberg virus (SBV). Put plainly: Cotreatment assay (plaque reduction). The following applies: for percentage of viral inhibition at 100 μM (library screening): cotreatment, peptide 100 μM, SBV on BHK-21 cells, threshold 50% inhibition; for IC50: peptide + SBV (MOI 0.01) together on BHK-21 cells 2 h 37°C, plaques after 72 h, triplicate; for SI, Cotreatment: selectivity index CC50 value/IC50 value. Format: cell-based. The text has this: Baby Hamster Kidney cells (BHK-21) (ATCC CCL-10, Manassas, VA, USA), Madin–Darby bovine kidney (MDBK, ATCC CCL-22), and Vero/hSLAM cells (ECACC 04091501, Porton Down, United Kingdom) were cultivated in Dulbecco's modified Eagle's medium (DMEM, Microtech, Naples, Italy) supplemented with 10% fetal bovine serum (FBS) (Microtech). Viruses were kindly provided by Professor Giuseppe Iovane (University Federico II, Naples, Italy). Cells were infected with a multiplicity of infection (MOI) of 0.01, and we assessed viral titers through plaque assays.
SBV titration was performed on BHK-21 cells. Briefly, BHK-21 cell monolayers in 12-well cell culture plates were infected with SBV dilutions. After 1 h of incubation, viral inocula were removed and a mixture of DMEM 10% FBS and 3% carboxymethyl cellulose (CMC) was added to all wells. After incubation for 72 h, cells were fixed with 4% formaldehyde solution and stained with 0,5% crystal violet (Sigma-Aldrich, St. Louis, MO, USA). Plaques were scored and stock virus titration was calculated as plaque forming unit (PFU)/ml.
Peptides were dissolved in water. To assess the impact of these peptides on inhibiting SBV infectivity, a very general assay (cotreatment) was performed by treating cells (5 × 10^5 cells/well) with peptides at 200, 100, 50, 25, 12.5, 6.25, and 1 μM and incubating them with the viral inoculum (MOI of 0.01) for 2 h at 37°C. To effectively inactivate nonpenetrated viruses, we treated cells with citrate buffer (pH 3.0) and then cultured BHK-21 for 72 h at 37°C/5% CO2 in DMEM enriched with 10% FBS and CMC. The monolayers were finally fixed and stained, and the plaque number was scored. The percentage of inhibition was calculated in comparison to the control group (cell infected and treated with no peptide).

In data set [2] the test system is Schmallenberg virus (SBV). Put plainly: Virus pretreatment assay (plaque reduction). The note with it: for IC50: peptide + SBV (MOI 0.1) 1 h 37°C, then diluted on BHK-21 cells (final MOI 0.01), plaques after 72 h; for SI, Virus pretreatment: selectivity index CC50 value/IC50 value. Format: cell-based. As for the experimental part:
(§1) Peptide concentrations are the same as used in the initial cotreatment assay. Virus pretreatment assay: peptides were added to the virus (MOI of 0.1) for 1 h at 37°C. Following the incubation period, the mixture of virus and peptide was diluted on cells for 2 h: this process allowed the peptides to achieve a nonactive concentration while ensuring that the virus remained at an optimal final MOI of 0.01. Then, the cells underwent a 72-h incubation with CMC. Cell pretreatment: Precooled cells were treated with the peptides for 1 h, followed by the incubation of the viral inoculum (MOI of 0.01) for 2 hr at 37°C. At the end, cells were overlaid with CMC for 72 hr at 37°C. Posttreatment: Cells were treated with peptide following the viral infection (MOI of 0.01 pfu/mL) for 2 h at 37°C; then, CMC was added for 72 h at 37°C. For each treatment, the IC50, which is the peptide concentration resulting in a 50% reduction of SBV infectivity, was calculated.

Data set [3] has as its system Schmallenberg virus (SBV). The data set can be described thus: Attachment assay (temperature shift). The note with it: for IC50: BHK-21 cells, SBV MOI 0.01 and peptide simultaneously 2 h at 4°C, plaques after 72 h at 37°C; for SI, Attachment: selectivity index CC50 value/IC50 value. It is filed as cell-based. As for the experimental part:
(§2) Two additional assays were performed. Peptide concentrations are the same as those used in the other treatments. Attachment assay: Cells were infected with the virus (MOI 0.01) and simultaneously each peptide was inoculated for 2 h at 4°C; then, cells were left in CMC for 72 h at 37°C. Entry assay: BHK-21 monolayer was infected with SBV (MOI 0.01) for 2 h at 4°C, followed by the treatment with each peptide for 1 h at 37°C; finally, CMC was added on cells. Similarly to other assays, at the end, viral plaques were observed.

The test system of data set [4] is Schmallenberg virus (SBV). The data set can be described thus: Entry assay (temperature shift). It is filed as cell-based. The note with it: for IC50: BHK-21 infected with SBV MOI 0.01 2 h at 4°C, then peptide 1 h at 37°C, plaque count; for SI, Entry: selectivity index CC50 value/IC50 value. As for the experimental part: as §2
Data set [5] relates to Schmallenberg virus (SBV). Put plainly: Cell pretreatment assay (plaque reduction). Format: cell-based. The note with it: precooled BHK-21 cells treated with peptide 1 h, then SBV MOI 0.01 for 2 h 37°C; plaques after 72 h. The method, then: as §1
For data set [6], the system named is Schmallenberg virus (SBV). Put plainly: Posttreatment assay (plaque reduction). It is filed as cell-based. The following applies: BHK-21 cells treated with peptide after SBV infection (MOI 0.01, 2 h 37°C); plaques after 72 h. As for the experimental part:
as §1

The test system of data set [7] is BHK-21 cells. Put plainly: MTT cytotoxicity assay. Format: cell-based, Hamster. The following applies: 24 h treatment, peptides 1-200 µM, read at 570 nm, triplicate. The method, then:
Peptide cytotoxicity was measured by 3- (4, 5-dimethylthiazol-2-yl)-2, 5-diphenyltetrazolium bromide (MTT) assay according to manufacturer's instructions (Sigma-Aldrich, St. Louis, Missouri, United States). BHK-21 cells (4 × 10^4 cells/well) were treated with peptides at different concentrations ranging from 1 µM to 200 and, after 24 h, 100 μL of the MTT solution (5 mg/mL) was incubated for 3 h at 37°C. Then, we used DMSO (Sigma Aldrich) to dissolve tetrazolium salts under agitation. Cytotoxicity was analyzed at 570 nm, and cell viability was measured against control cells—those that received no treatment. At the end, the 50% cytotoxic concentration (CC50) was determined using GraphPad Prism software (GraphPad Software, San Diego, CA, USA).

Here are results for five compounds from article PMC12297138, “Screening and Identification of Multiple Peptides Homologous to the Fusion Glycoprotein Gc of Schmallenberg Virus Able to Inhibit Viral Infection” (Transboundary and Emerging Diseases, 2025).

What is called IC50 is the midpoint of a concentration-inhibition curve. For orientation: CC50 means the concentration at which the toxic effect on the cells reaches its halfway point. A low value points to harm at low concentration.

`CC[C@H](C)[C@H](NC(=O)[C@H](CC(=O)O)NC(=O)[C@H](CO)NC(=O)[C@H](CCC(N)=O)NC(=O)[C@H](CC(C)C)NC(=O)[C@H](C)NC(=O)[C@H](C)NC(=O)[C@@H](NC(=O)[C@H](Cc1ccc(O)cc1)NC(=O)[C@H](CC(N)=O)NC(=O)[C@H](CCC(=O)O)NC(=O)[C@@H](NC(=O)[C@H](CC(=O)O)NC(=O)[C@@H]1CCCN1C(=O)[C@H](Cc1c[nH]cn1)NC(=O)[C@@H](N)CC(N)=O)[C@@H](C)CC)[C@@H](C)CC)C(=O)N[C@@H](C)C(=O)N[C@@H](CC(N)=O)C(=O)N[C@@H](CC(=O)O)C(=O)N[C@@H](CC(C)C)C(=O)N[C@H](C(=O)N[C@@H](CCSC)C(=O)N[C@@H](Cc1c[nH]cn1)C(=O)N[C@@H](Cc1ccc(O)cc1)C(=O)N[C@@H](Cc1ccccc1)C(=O)O)[C@@H](C)O` [Gc30]: the “percentage of viral inhibition at 100 μM (library screening)” value (“percentage of viral inhibition at 100 μM” for short) in data set [1] is “greater than 50%”. The IC50 amounted to 12.5 µM in data set [1], 20 µM in data set [2], 50 µM in data set [3] and 20 µM in data set [4].
Take `CC[C@H](C)[C@H](NC(=O)[C@@H](NC(=O)[C@H](CC(=O)O)NC(=O)[C@H](CCCCN)NC(=O)[C@H](CCCNC(=N)N)NC(=O)[C@H](CC(N)=O)NC(=O)[C@@H](N)Cc1ccccc1)C(C)C)C(=O)N[C@@H](CC(C)C)C(=O)N[C@@H](CCCNC(=N)N)C(=O)N[C@@H](CCCNC(=N)N)C(=O)N[C@@H](CS)C(=O)N[C@@H](Cc1ccccc1)C(=O)N[C@@H](CC(=O)O)C(=O)N[C@@H](CC(N)=O)C(=O)N[C@@H](CO)C(=O)N[C@@H](Cc1ccc(O)cc1)C(=O)N[C@@H](CCC(N)=O)C(=O)N[C@@H](CO)C(=O)N[C@@H](CS)C(=O)N[C@@H](CC(C)C)C(=O)N[C@@H](CC(C)C)C(=O)N[C@@H](CC(C)C)C(=O)N[C@@H](CCC(=O)O)C(=O)N[C@@H](CCC(N)=O)C(=O)N[C@@H](CC(=O)O)C(=O)O` [Gc48]: the “SI, Cotreatment” value in data set [1] is 2. In addition, the half-inhibitory concentration (IC50) in data set [5] and in data set [6] was greater than 100 µM in each case. The “SI, Virus pretreatment” value in data set [2] is listed as 4. Moreover, in data set [3], the “SI, Attachment” value was 2. In data set [4], the “SI, Entry” value stood at 4.
For the compound `CC[C@H](C)[C@H](NC(=O)[C@@H](NC(=O)[C@H](CC(C)C)NC(=O)[C@@H](NC(=O)[C@H](CC(N)=O)NC(=O)[C@H](CC(=O)O)NC(=O)[C@H](CCC(N)=O)NC(=O)[C@H](CCC(=O)O)NC(=O)[C@H](CC(C)C)NC(=O)[C@H](CC(C)C)NC(=O)[C@H](CC(C)C)NC(=O)[C@H](CS)NC(=O)[C@H](CO)NC(=O)[C@H](CCC(N)=O)NC(=O)[C@@H](N)Cc1ccc(O)cc1)[C@@H](C)O)[C@@H](C)O)C(=O)N[C@@H](C)C(=O)N[C@@H](CO)C(=O)N[C@H](C(=O)N[C@@H](CO)C(=O)N[C@@H](Cc1c[nH]cn1)C(=O)N[C@@H](CCSC)C(=O)N[C@@H](CCC(=O)O)C(=O)N[C@H](C(=O)N[C@@H](Cc1c[nH]cn1)C(=O)N[C@@H](CCCCN)C(=O)O)C(C)C)[C@@H](C)O` [Gc49], the “percentage of viral inhibition at 100 μM” value in data set [1] is “greater than 50%”. Besides, the half-inhibitory concentration (IC50) came to 10 µM in data set [1], 10 µM in data set [2], 25 µM in data set [3] and 20 µM in data set [4]. In addition, in data set [7], the CC50 was 200 µM.
Turning to `CC[C@H](C)[C@H](NC(=O)[C@H](CO)NC(=O)[C@@H](N)Cc1ccc(O)cc1)C(=O)N[C@@H](CCCCN)C(=O)N[C@@H](CC(C)C)C(=O)N[C@@H](CC(N)=O)C(=O)N[C@@H](CS)C(=O)N1CCC[C@H]1C(=O)N[C@@H](CC(C)C)C(=O)N[C@@H](C)C(=O)N[C@H](C(=O)N[C@@H](CCC(=O)O)C(=O)N[C@H](C(=O)N[C@H](C(=O)N[C@@H](CO)C(=O)N[C@H](C(=O)N[C@@H](CO)C(=O)N[C@H](C(=O)N[C@@H](CS)C(=O)N[C@@H](CO)C(=O)N[C@@H](C)C(=O)N[C@@H](CO)C(=O)N[C@@H](C)C(=O)N[C@@H](Cc1ccc(O)cc1)C(=O)N[C@H](C(=O)O)[C@@H](C)O)C(C)C)C(C)C)C(C)C)[C@@H](C)O)[C@@H](C)O` [Gc56], the “percentage of viral inhibition at 100 μM” value in data set [1] is recorded as “greater than 50%”. The IC50 in data set [1] was found to be 100 µM; in data set [2], 40 µM; in data set [3] it was 50 µM; in data set [4] it was 40 µM. In addition, in data set [7], the CC50 worked out at 200 µM.
In the case of `CC[C@H](C)[C@H](NC(=O)CNC(=O)[C@H](CCC(=O)O)NC(=O)[C@H](CCCCN)NC(=O)[C@H](Cc1ccc(O)cc1)NC(=O)[C@@H](NC(=O)[C@H](CCCNC(=N)N)NC(=O)[C@H](CS)NC(=O)[C@H](CC(C)C)NC(=O)[C@H](Cc1c[nH]c2ccccc12)NC(=O)[C@@H](NC(=O)[C@H](CO)NC(=O)[C@H](CS)NC(=O)[C@H](CCCCN)NC(=O)[C@H](CCCCN)NC(=O)[C@H](CC(=O)O)NC(=O)[C@H](Cc1c[nH]cn1)NC(=O)[C@H](CCC(N)=O)NC(=O)[C@H](CCC(=O)O)NC(=O)[C@@H](NC(=O)[C@@H](N)Cc1ccc(O)cc1)[C@@H](C)CC)[C@@H](C)O)C(C)C)C(=O)N[C@@H](CO)C(=O)N[C@H](C(=O)N[C@H](C(=O)N[C@@H](Cc1ccccc1)C(=O)O)[C@@H](C)CC)C(C)C` [Gc59], the “SI, Cotreatment” value in data set [1] was 4. For the same compound, the half-maximal inhibitory concentration (IC50) in data set [5] and in data set [6] was greater than 100 µM throughout. In addition, the “SI, Virus pretreatment” value in data set [2] stood at 5. The “SI, Attachment” value in data set [3] was found to be 3.6. The “SI, Entry” value in data set [4] is recorded as 5.7.
